Measured values published in patent publication US20160009693A1, “HERBICIDAL COMPOUNDS” (SYNGENTA LIMITED, priority 2013, published 2016).

Key:
Type in all cases: in vivo
Conditions in all cases: applied at 1000 g/h, evaluated after 13 days
[1] = test system: Alopecurus myosuroides (ALOMY); assay: Herbicidal glasshouse test, pre-emergence, ALOMY
Description: (§1) Seeds of a variety of test species are sown in standard soil in pots (Alopecurus myosuroides (ALOMY), Setaria faberi (SETFA), Echinochloa crus-galli (ECHCG), Solanum nigrum (SOLNI), Amaranthus retoflexus (AMARE), Ipomoea hederacea (IPOHE)). After cultivation for one day (pre-emergence) or after 8 days cultivation (post-emergence) under controlled conditions in a glasshouse (at 24/16° C., day/night; 14 hours light; 65% humidity), the plants are sprayed with an aqueous spray solution derived from the formulation of the technical active ingredient in acetone / water (50:50) solution containing 0.5% Tween 20 (polyoxyethelyene sorbitan monolaurate, CAS RN 9005-64-5). […] The test plants are then grown in a glasshouse under controlled conditions in a glasshouse (at 24/16° C., day/night; 14 hours light; 65% humidity) and watered twice daily. After 13 days for pre and post-emergence, the test is evaluated for the percentage damage caused to the plant. The biological activities are shown in the following table on a five point scale (5=80-100%; 4=60-79%; 3=40-59%; 2=20-39%; 1=0-19%).

[2] = test system: Setaria faberi (SETFA); assay: Herbicidal glasshouse test, pre-emergence, SETFA
Description: as §1

[3] = test system: Echinochloa crus-galli (ECHCG); assay: Herbicidal glasshouse test, pre-emergence, ECHCG
Description: as §1

[4] = test system: Solanum nigrum (SOLNI); assay: Herbicidal glasshouse test, pre-emergence, SOLNI
Description: as §1

[5] = test system: Amaranthus retoflexus (AMARE); assay: Herbicidal glasshouse test, pre-emergence, AMARE
Description: as §1

[6] = test system: Ipomoea hederacea (IPOHE); assay: Herbicidal glasshouse test, pre-emergence, IPOHE
Description: as §1

[7] = test system: Alopecurus myosuroides (ALOMY); assay: Herbicidal glasshouse test, post-emergence, ALOMY
Description: as §1

[8] = test system: Setaria faberi (SETFA); assay: Herbicidal glasshouse test, post-emergence, SETFA
Description: as §1

[9] = test system: Echinochloa crus-galli (ECHCG); assay: Herbicidal glasshouse test, post-emergence, ECHCG
Description: as §1

[10] = test system: Solanum nigrum (SOLNI); assay: Herbicidal glasshouse test, post-emergence, SOLNI
Description: as §1

[11] = test system: Amaranthus retoflexus (AMARE); assay: Herbicidal glasshouse test, post-emergence, AMARE
Description: as §1

[12] = test system: Ipomoea hederacea (IPOHE); assay: Herbicidal glasshouse test, post-emergence, IPOHE
Description: as §1

Compound: CCCCn1c(=O)c(C(=O)Nc2nnnn2C)nn(C)c1=O [Compound 1.001]
- PRE Application ALOMY, percentage damage (five point scale) [1]: 5 (5=80-100%)
- PRE Application SETFA, percentage damage (five point scale) [2]: 5 (5=80-100%)
- PRE Application ECHCG, percentage damage (five point scale) [3]: 5 (5=80-100%)
- PRE Application SOLNI, percentage damage (five point scale) [4]: 5 (5=80-100%)
- PRE Application AMARE, percentage damage (five point scale) [5]: 5 (5=80-100%)
- PRE Application IPOHE, percentage damage (five point scale) [6]: 5 (5=80-100%)
- POST Application ALOMY, percentage damage (five point scale) [7]: 5 (5=80-100%)
- POST Application SETFA, percentage damage (five point scale) [8]: 5 (5=80-100%)
- POST Application ECHCG, percentage damage (five point scale) [9]: 5 (5=80-100%)
- POST Application SOLNI, percentage damage (five point scale) [10]: 5 (5=80-100%)
- POST Application AMARE, percentage damage (five point scale) [11]: 5 (5=80-100%)
- POST Application IPOHE, percentage damage (five point scale) [12]: 5 (5=80-100%)

Compound: Cn1nnnc1NC(=O)c1nn(C)c(=O)n(-c2ccccc2)c1=O [Compound 1.002]
- PRE Application ALOMY, percentage damage (five point scale) [1]: 5 (5=80-100%)
- PRE Application SETFA, percentage damage (five point scale) [2]: 5 (5=80-100%)
- PRE Application ECHCG, percentage damage (five point scale) [3]: 5 (5=80-100%)
- PRE Application SOLNI, percentage damage (five point scale) [4]: 5 (5=80-100%)
- PRE Application AMARE, percentage damage (five point scale) [5]: 5 (5=80-100%)
- PRE Application IPOHE, percentage damage (five point scale) [6]: 5 (5=80-100%)
- POST Application ALOMY, percentage damage (five point scale) [7]: 5 (5=80-100%)
- POST Application SETFA, percentage damage (five point scale) [8]: 5 (5=80-100%)
- POST Application ECHCG, percentage damage (five point scale) [9]: 5 (5=80-100%)
- POST Application SOLNI, percentage damage (five point scale) [10]: 5 (5=80-100%)
- POST Application AMARE, percentage damage (five point scale) [11]: 5 (5=80-100%)
- POST Application IPOHE, percentage damage (five point scale) [12]: 5 (5=80-100%)

Compound: Cn1nnnc1NC(=O)c1nn(C)c(=O)n(-c2cccc(F)c2F)c1=O [Compound 1.003]
- PRE Application ALOMY, percentage damage (five point scale) [1]: 5 (5=80-100%)
- PRE Application SETFA, percentage damage (five point scale) [2]: 5 (5=80-100%)
- PRE Application ECHCG, percentage damage (five point scale) [3]: 5 (5=80-100%)
- PRE Application SOLNI, percentage damage (five point scale) [4]: 5 (5=80-100%)
- PRE Application AMARE, percentage damage (five point scale) [5]: 5 (5=80-100%)
- PRE Application IPOHE, percentage damage (five point scale) [6]: 5 (5=80-100%)
- POST Application ALOMY, percentage damage (five point scale) [7]: 5 (5=80-100%)
- POST Application SETFA, percentage damage (five point scale) [8]: 5 (5=80-100%)
- POST Application ECHCG, percentage damage (five point scale) [9]: 5 (5=80-100%)
- POST Application SOLNI, percentage damage (five point scale) [10]: 5 (5=80-100%)
- POST Application AMARE, percentage damage (five point scale) [11]: 5 (5=80-100%)
- POST Application IPOHE, percentage damage (five point scale) [12]: 5 (5=80-100%)

Compound: C=CCn1c(=O)c(C(=O)Nc2nnnn2C)nn(C)c1=O [Compound 1.004]
- PRE Application ALOMY, percentage damage (five point scale) [1]: 3 (3=40-59%)
- PRE Application SETFA, percentage damage (five point scale) [2]: 2 (2=20-39%)
- PRE Application ECHCG, percentage damage (five point scale) [3]: 4 (4=60-79%)
- PRE Application SOLNI, percentage damage (five point scale) [4]: 5 (5=80-100%)
- PRE Application AMARE, percentage damage (five point scale) [5]: 5 (5=80-100%)
- PRE Application IPOHE, percentage damage (five point scale) [6]: 4 (4=60-79%)
- POST Application ALOMY, percentage damage (five point scale) [7]: 4 (4=60-79%)
- POST Application SETFA, percentage damage (five point scale) [8]: 4 (4=60-79%)
- POST Application ECHCG, percentage damage (five point scale) [9]: 4 (4=60-79%)
- POST Application SOLNI, percentage damage (five point scale) [10]: 5 (5=80-100%)
- POST Application AMARE, percentage damage (five point scale) [11]: 5 (5=80-100%)
- POST Application IPOHE, percentage damage (five point scale) [12]: 5 (5=80-100%)

Compound: CC(C)Cn1c(=O)c(C(=O)Nc2nnnn2C)nn(C)c1=O [Compound 1.005]
- PRE Application ALOMY, percentage damage (five point scale) [1]: 5 (5=80-100%)
- PRE Application SETFA, percentage damage (five point scale) [2]: 5 (5=80-100%)
- PRE Application ECHCG, percentage damage (five point scale) [3]: 5 (5=80-100%)
- PRE Application SOLNI, percentage damage (five point scale) [4]: 5 (5=80-100%)
- PRE Application AMARE, percentage damage (five point scale) [5]: 5 (5=80-100%)
- PRE Application IPOHE, percentage damage (five point scale) [6]: 4 (4=60-79%)
- POST Application ALOMY, percentage damage (five point scale) [7]: 5 (5=80-100%)
- POST Application SETFA, percentage damage (five point scale) [8]: 5 (5=80-100%)
- POST Application ECHCG, percentage damage (five point scale) [9]: 5 (5=80-100%)
- POST Application SOLNI, percentage damage (five point scale) [10]: 5 (5=80-100%)
- POST Application AMARE, percentage damage (five point scale) [11]: 5 (5=80-100%)
- POST Application IPOHE, percentage damage (five point scale) [12]: 5 (5=80-100%)

Compound: CCc1ccc(-n2c(=O)c(C(=O)Nc3nnnn3C)nn(C)c2=O)cc1 [Compound 1.006]
- PRE Application ALOMY, percentage damage (five point scale) [1]: 5 (5=80-100%)
- PRE Application SETFA, percentage damage (five point scale) [2]: 5 (5=80-100%)
- PRE Application ECHCG, percentage damage (five point scale) [3]: 5 (5=80-100%)
- PRE Application SOLNI, percentage damage (five point scale) [4]: 5 (5=80-100%)
- PRE Application AMARE, percentage damage (five point scale) [5]: 5 (5=80-100%)
- PRE Application IPOHE, percentage damage (five point scale) [6]: 5 (5=80-100%)
- POST Application ALOMY, percentage damage (five point scale) [7]: 5 (5=80-100%)
- POST Application SETFA, percentage damage (five point scale) [8]: 5 (5=80-100%)
- POST Application ECHCG, percentage damage (five point scale) [9]: 5 (5=80-100%)
- POST Application SOLNI, percentage damage (five point scale) [10]: 5 (5=80-100%)
- POST Application AMARE, percentage damage (five point scale) [11]: 5 (5=80-100%)
- POST Application IPOHE, percentage damage (five point scale) [12]: 5 (5=80-100%)

Compound: C=CCn1nc(C(=O)Nc2nnnn2C)c(=O)n(-c2cccc(F)c2)c1=O [Compound 1.007]
- PRE Application ALOMY, percentage damage (five point scale) [1]: 2 (2=20-39%)
- PRE Application SETFA, percentage damage (five point scale) [2]: 1 (1=0-19%)
- PRE Application ECHCG, percentage damage (five point scale) [3]: 5 (5=80-100%)
- PRE Application SOLNI, percentage damage (five point scale) [4]: 5 (5=80-100%)
- PRE Application AMARE, percentage damage (five point scale) [5]: 5 (5=80-100%)
- PRE Application IPOHE, percentage damage (five point scale) [6]: 5 (5=80-100%)
- POST Application ALOMY, percentage damage (five point scale) [7]: 5 (5=80-100%)
- POST Application SETFA, percentage damage (five point scale) [8]: 5 (5=80-100%)
- POST Application ECHCG, percentage damage (five point scale) [9]: 5 (5=80-100%)
- POST Application SOLNI, percentage damage (five point scale) [10]: 5 (5=80-100%)
- POST Application AMARE, percentage damage (five point scale) [11]: 5 (5=80-100%)
- POST Application IPOHE, percentage damage (five point scale) [12]: 5 (5=80-100%)

Compound: Cn1nnnc1NC(=O)c1nn(C)c(=O)n(-c2ccc(F)c(Cl)c2)c1=O [Compound 1.008]
- PRE Application ALOMY, percentage damage (five point scale) [1]: 5 (5=80-100%)
- PRE Application SETFA, percentage damage (five point scale) [2]: 5 (5=80-100%)
- PRE Application ECHCG, percentage damage (five point scale) [3]: 5 (5=80-100%)
- PRE Application SOLNI, percentage damage (five point scale) [4]: 5 (5=80-100%)
- PRE Application AMARE, percentage damage (five point scale) [5]: 5 (5=80-100%)
- PRE Application IPOHE, percentage damage (five point scale) [6]: 5 (5=80-100%)
- POST Application ALOMY, percentage damage (five point scale) [7]: 5 (5=80-100%)
- POST Application SETFA, percentage damage (five point scale) [8]: 5 (5=80-100%)
- POST Application ECHCG, percentage damage (five point scale) [9]: 5 (5=80-100%)
- POST Application SOLNI, percentage damage (five point scale) [10]: 5 (5=80-100%)
- POST Application AMARE, percentage damage (five point scale) [11]: 5 (5=80-100%)
- POST Application IPOHE, percentage damage (five point scale) [12]: 5 (5=80-100%)

Compound: CSc1ccc(-n2c(=O)c(C(=O)Nc3nnnn3C)nn(C)c2=O)cc1 [Compound 1.009]
- PRE Application ALOMY, percentage damage (five point scale) [1]: 2 (2=20-39%)
- PRE Application SETFA, percentage damage (five point scale) [2]: 1 (1=0-19%)
- PRE Application ECHCG, percentage damage (five point scale) [3]: 2 (2=20-39%)
- PRE Application SOLNI, percentage damage (five point scale) [4]: 5 (5=80-100%)
- PRE Application AMARE, percentage damage (five point scale) [5]: 5 (5=80-100%)
- PRE Application IPOHE, percentage damage (five point scale) [6]: 4 (4=60-79%)
- POST Application ALOMY, percentage damage (five point scale) [7]: 5 (5=80-100%)
- POST Application SETFA, percentage damage (five point scale) [8]: 5 (5=80-100%)
- POST Application ECHCG, percentage damage (five point scale) [9]: 5 (5=80-100%)
- POST Application SOLNI, percentage damage (five point scale) [10]: 5 (5=80-100%)
- POST Application AMARE, percentage damage (five point scale) [11]: 5 (5=80-100%)
- POST Application IPOHE, percentage damage (five point scale) [12]: 5 (5=80-100%)
